Here are results for 14 compounds from patent publication US11236129B2, “IL-17A binding peptides and medical uses thereof” (Dompe' Farmaceutici S.P.A., priority 2018, dated 2022).

SMILES strings stand for the structures. Residues, ends and D or L forms follow the SMILES beside them.

The experiment deals with IL-17RA/IL17RC dimerization induced by IL-17A (Homo sapiens, UniProt Q16552). Description: IL-17RA/IL17RC dimerization assay in response to IL-17A (PathHunter Cytokine Receptor Assay). The class given is cell-based. Conditions: IL-17A at EC80; read-out: IC50 in IL-17RA/IL7RC dimerization assay. The method, then: The peptides of Table 7 were tested for their ability to inhibit the binding of IL-17A to its receptor and the subsequent interaction of IL-17RA and IL17RC.
Sequence of IL-17RA/IL17RC dimerization induced by IL-17A (Q16552 24-155): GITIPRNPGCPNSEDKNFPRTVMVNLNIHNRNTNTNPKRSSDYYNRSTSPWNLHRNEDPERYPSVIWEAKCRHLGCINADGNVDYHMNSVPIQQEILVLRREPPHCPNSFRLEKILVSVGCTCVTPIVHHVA
Interleukin receptor RA and RC dimerization assay (DiscoverX) was used to measure the interaction of the receptor chains IL-17RA and IL17RC upon activation by IL-17A in the absence or presence of the peptides of Table 7.
In the PathHunter® Cytokine Receptor Assay, one cytokine receptor chain is tagged with a small peptide epitope ProLink (PK) and the other chain is tagged with Enzyme Acceptor (EA). Ligand binding induces dimerization of the two receptors, facilitating complementation of PK and EA fragments. This interaction generates an active unit of b-galactosidase, which is detected using a chemiluminescent substrate. PathHunter cell lines were expanded from freezer stocks according to standard procedures. Cells were seeded in a total volume of 20 μL into white walled, 384-well microplates and incubated for the appropriate time prior to testing. For agonist activity inhibition, cells were incubated with sample to induce response. Intermediate dilution of sample stocks was performed to generate 5× sample in assay buffer. 5 μL of 5× sample was added to cells and incubated at 37° C. or room temperature for 60 minutes. Vehicle concentration was 1%. 5 μL of 6×EC80 agonist (IL-17A) in assay buffer was added to the cells and incubated at 37° C. for 6 to 16 hours depending on the assay. 1. […] For some assays, activity was detected using a high sensitivity detection reagent (PathHunter Flash Kit) to improve assay performance. In these assays, an equal volume of detection reagent (25 or 30 uL) was added to the wells, followed by a one hour incubation at room temperature. Microplates were read following signal generation with a PerkinElmer Envision™ instrument for chemiluminescent signal detection. Compound activity was analyzed using CBIS data analysis suite (ChemInnovation, CA). % Inhibition=100%×(1−(mean RLU of test sample−mean RLU of vehicle control)/(mean RLU of EC80 control−mean RLU of vehicle control)).

On to `CC(=O)N[C@H](C(=O)N[C@@H](Cc1c[nH]cn1)C(=O)N[C@@H](Cc1ccccc1)C(=O)N[C@@H](CCC(N)=O)C(=O)N[C@@H](Cc1ccccc1)C(=O)N1CCC[C@H]1C(=O)N[C@@H](C)C(=O)N[C@@H](CC(=O)O)C(=O)N[C@@H](CC(C)C)C(=O)N[C@@H](Cc1c[nH]c2ccccc12)C(=O)N[C@@H](CCC(=O)O)C(=O)N[C@@H](Cc1c[nH]c2ccccc12)C(=O)N[C@@H](Cc1ccccc1)C(=O)N[C@@H](CCCNC(=N)N)C(=O)N[C@@H](CCCNC(=N)N)C(N)=O)C(C)C` [SEQ ID NO: 135] (Ac-VHFQFPADLWEWFRR-NH2), for which the IC50 is < 500 nM.
Consider `CC(=O)N[C@H](C(=O)N[C@@H](Cc1c[nH]cn1)C(=O)N[C@@H](Cc1ccccc1)C(=O)N[C@@H](CCC(N)=O)C(=O)N[C@@H](Cc1ccccc1)C(=O)N1CCC[C@H]1C(=O)N[C@@H](CCC(N)=O)C(=O)N[C@@H](CC(=O)O)C(=O)N[C@@H](Cc1c[nH]c2ccccc12)C(=O)N[C@@H](Cc1c[nH]c2ccccc12)C(=O)N[C@@H](CCC(=O)O)C(=O)N[C@@H](Cc1c[nH]c2ccccc12)C(=O)N[C@H](C(=O)N[C@@H](CCCNC(=N)N)C(=O)N[C@@H](CCCNC(=N)N)C(N)=O)C(C)C)C(C)C` [SEQ ID NO: 136] (Ac-VHFQFPQDWWEWVRR-NH2), for which the IC50 was < 500 nM.
In the case of `CC[C@H](C)[C@H](NC(=O)[C@H](CCC(N)=O)NC(=O)[C@H](Cc1ccccc1)NC(=O)[C@H](Cc1c[nH]cn1)NC(=O)[C@@H](NC(C)=O)C(C)C)C(=O)N1CCC[C@H]1C(=O)N[C@@H](CCC(N)=O)C(=O)N[C@@H](CC(=O)O)C(=O)N[C@@H](Cc1c[nH]c2ccccc12)C(=O)N[C@@H](Cc1c[nH]c2ccccc12)C(=O)N[C@@H](CCC(=O)O)C(=O)N[C@@H](Cc1c[nH]c2ccccc12)C(=O)N[C@H](C(=O)N[C@@H](CCCNC(=N)N)C(=O)N[C@@H](CCCNC(=N)N)C(N)=O)C(C)C` [SEQ ID NO: 137] (Ac-VHFQIPQDWWEWVRR-NH2), the IC50 was < 500 nM.
For `CC(=O)N[C@H](C(=O)N[C@@H](Cc1c[nH]cn1)C(=O)N[C@@H](Cc1ccccc1)C(=O)N[C@@H](CCC(N)=O)C(=O)N[C@@H](Cc1ccccc1)C(=O)N1CCC[C@H]1C(=O)N[C@@H](CCC(N)=O)C(=O)N[C@@H](CC(=O)O)C(=O)N[C@@H](Cc1c[nH]c2ccccc12)C(=O)N[C@@H](Cc1ccc(O)cc1)C(=O)N[C@@H](CCC(=O)O)C(=O)N[C@@H](Cc1c[nH]c2ccccc12)C(=O)N[C@H](C(=O)N[C@@H](CCCNC(=N)N)C(=O)N[C@@H](CCCNC(=N)N)C(N)=O)C(C)C)C(C)C` [SEQ ID NO: 138] (Ac-VHFQFPQDWYEWVRR-NH2), the IC50 was < 500 nM.
As to `CC(=O)N[C@H](C(=O)N[C@@H](Cc1c[nH]cn1)C(=O)N[C@@H](Cc1ccccc1)C(=O)N[C@@H](CCC(N)=O)C(=O)N[C@@H](Cc1ccccc1)C(=O)N1CCC[C@H]1C(=O)N[C@@H](CCC(N)=O)C(=O)N[C@@H](CC(=O)O)C(=O)N[C@@H](Cc1c[nH]c2ccccc12)C(=O)N[C@@H](Cc1c[nH]c2ccccc12)C(=O)N[C@@H](CC(N)=O)C(=O)N[C@@H](Cc1c[nH]c2ccccc12)C(=O)N[C@H](C(=O)N[C@@H](CCCNC(=N)N)C(=O)N[C@@H](CCCNC(=N)N)C(N)=O)C(C)C)C(C)C` [SEQ ID NO: 139] (Ac-VHFQFPQDWWNWVRR-NH2), the IC50 was < 500 nM.
Turning to `CC(=O)N[C@H](C(=O)N[C@@H](Cc1c[nH]cn1)C(=O)N[C@@H](Cc1ccccc1)C(=O)N[C@@H](CCC(N)=O)C(=O)N[C@@H](Cc1ccccc1)C(=O)N1CCC[C@H]1C(=O)N[C@@H](CCC(N)=O)C(=O)N[C@@H](CC(=O)O)C(=O)N[C@@H](CC(C)C)C(=O)N[C@@H](Cc1c[nH]c2ccccc12)C(=O)N[C@@H](CCC(=O)O)C(=O)N[C@@H](Cc1ccccc1)C(=O)N[C@H](C(=O)N[C@@H](CCCNC(=N)N)C(=O)N[C@@H](CCCNC(=N)N)C(N)=O)C(C)C)C(C)C` [SEQ ID NO: 140] (Ac-VHFQFPQDLWEFVRR-NH2), the IC50 is < 500 nM.
Turning to `CC(=O)N[C@H](C(=O)N[C@@H](Cc1c[nH]cn1)C(=O)N[C@@H](Cc1ccccc1)C(=O)N[C@@H](CCC(N)=O)C(=O)N[C@@H](Cc1ccccc1)C(=O)N1CCC[C@H]1C(=O)N[C@@H](CCC(N)=O)C(=O)N[C@@H](CC(=O)O)C(=O)N[C@@H](Cc1c[nH]c2ccccc12)C(=O)N[C@@H](Cc1c[nH]c2ccccc12)C(=O)N[C@@H](CCC(=O)O)C(=O)N[C@@H](Cc1c[nH]c2ccccc12)C(=O)N[C@@H](Cc1ccccc1)C(=O)N[C@@H](CCCNC(=N)N)C(=O)N[C@@H](CCCNC(=N)N)C(N)=O)C(C)C` [SEQ ID NO: 141] (Ac-VHFQFPQDWWEWFRR-NH2), the IC50 is < 500 nM.
In the case of `CC[C@H](C)[C@H](NC(=O)[C@@H](NC(=O)[C@H](Cc1ccccc1)NC(=O)[C@H](Cc1c[nH]cn1)NC(=O)[C@@H](NC(C)=O)C(C)C)[C@@H](C)O)C(=O)N1CCC[C@H]1C(=O)N[C@@H](C)C(=O)N[C@@H](CC(=O)O)C(=O)N[C@@H](Cc1ccccc1)C(=O)N[C@@H](Cc1c[nH]c2ccccc12)C(=O)N[C@@H](CCC(=O)O)C(=O)N[C@@H](Cc1c[nH]c2ccccc12)C(=O)N[C@@H](Cc1ccccc1)C(=O)N[C@@H](CCCNC(=N)N)C(=O)N[C@@H](CCCNC(=N)N)C(N)=O` [SEQ ID NO: 142] (Ac-VHFTIPADFWEWFRR-NH2), the IC50 is < 500 nM.
Take `CC[C@H](C)[C@H](NC(=O)[C@H](CCC(N)=O)NC(=O)[C@@H](NC(=O)[C@H](Cc1c[nH]cn1)NC(=O)[C@@H](NC(C)=O)C(C)C)C(C)C)C(=O)N1CCC[C@H]1C(=O)N[C@@H](C)C(=O)N[C@@H](CC(=O)O)C(=O)N[C@@H](Cc1ccccc1)C(=O)N[C@@H](Cc1c[nH]c2ccccc12)C(=O)N[C@@H](CCC(=O)O)C(=O)N[C@@H](Cc1c[nH]c2ccccc12)C(=O)N[C@@H](Cc1ccccc1)C(=O)N[C@@H](CCCNC(=N)N)C(=O)N[C@@H](CCCNC(=N)N)C(N)=O` [SEQ ID NO: 143] (Ac-VHVQIPADFWEWFRR-NH2): the IC50 is < 500 nM.
With `CC(=O)N[C@H](C(=O)N[C@@H](Cc1c[nH]cn1)C(=O)N[C@H](C(=O)N[C@H](C(=O)N[C@@H](Cc1ccccc1)C(=O)N1CCC[C@H]1C(=O)N[C@@H](C)C(=O)N[C@@H](CC(=O)O)C(=O)N[C@@H](CC(C)C)C(=O)N[C@@H](Cc1c[nH]c2ccccc12)C(=O)N[C@@H](CCC(=O)O)C(=O)N[C@@H](Cc1c[nH]c2ccccc12)C(=O)N[C@@H](Cc1ccccc1)C(=O)N[C@@H](CCCNC(=N)N)C(=O)N[C@@H](CCCNC(=N)N)C(N)=O)[C@@H](C)O)C(C)C)C(C)C` [SEQ ID NO: 144] (Ac-VHVTFPADLWEWFRR-NH2), the IC50 was < 500 nM.
As to `CC[C@H](C)[C@H](NC(=O)[C@@H](NC(=O)[C@@H](NC(=O)[C@H](Cc1c[nH]cn1)NC(=O)[C@@H](NC(C)=O)C(C)C)C(C)C)[C@@H](C)O)C(=O)N1CCC[C@H]1C(=O)N[C@@H](CCC(N)=O)C(=O)N[C@@H](CC(=O)O)C(=O)N[C@@H](Cc1ccccc1)C(=O)N[C@@H](Cc1c[nH]c2ccccc12)C(=O)N[C@@H](CCC(=O)O)C(=O)N[C@@H](Cc1c[nH]c2ccccc12)C(=O)N[C@@H](Cc1ccccc1)C(=O)N[C@@H](CCCNC(=N)N)C(=O)N[C@@H](CCCNC(=N)N)C(N)=O` [SEQ ID NO: 145] (Ac-VHVTIPQDFWEWFRR-NH2), the IC50 is < 500 nM.
As for `CC[C@H](C)[C@H](NC(=O)[C@@H](NC(=O)[C@H](Cc1ccccc1)NC(=O)[C@H](Cc1c[nH]cn1)NC(=O)[C@@H](NC(C)=O)C(C)C)[C@@H](C)O)C(=O)N1CCC[C@H]1C(=O)N[C@@H](CCC(N)=O)C(=O)N[C@@H](CC(=O)O)C(=O)N[C@@H](Cc1c[nH]c2ccccc12)C(=O)N[C@@H](Cc1c[nH]c2ccccc12)C(=O)N[C@@H](CCC(=O)O)C(=O)N[C@@H](Cc1c[nH]c2ccccc12)C(=O)N[C@H](C(=O)N[C@@H](CCCNC(=N)N)C(=O)N[C@@H](CCCNC(=N)N)C(N)=O)C(C)C` [SEQ ID NO: 146] (Ac-VHFTIPQDWWEWVRR-NH2), the figure is < 500 nM; as for `CC(=O)N[C@H](C(=O)N[C@@H](Cc1c[nH]cn1)C(=O)N[C@@H](Cc1ccccc1)C(=O)N[C@H](C(=O)N[C@@H](Cc1ccccc1)C(=O)N1CCC[C@H]1C(=O)N[C@@H](CCC(N)=O)C(=O)N[C@@H](CC(=O)O)C(=O)N[C@@H](CC(C)C)C(=O)N[C@@H](Cc1ccc(O)cc1)C(=O)N[C@@H](CC(N)=O)C(=O)N[C@@H](Cc1c[nH]c2ccccc12)C(=O)N[C@H](C(=O)N[C@@H](CCCNC(=N)N)C(=O)N[C@@H](CCCNC(=N)N)C(N)=O)C(C)C)[C@@H](C)O)C(C)C` [SEQ ID NO: 147] (Ac-VHFTFPQDLYNWVRR-NH2), < 500 nM.
`CC(=O)N[C@H](C(=O)N[C@@H](Cc1c[nH]cn1)C(=O)N[C@@H](Cc1ccccc1)C(=O)N[C@H](C(=O)N[C@@H](Cc1ccccc1)C(=O)N1CCC[C@H]1C(=O)N[C@@H](CCC(N)=O)C(=O)N[C@@H](CC(=O)O)C(=O)N[C@@H](CC(C)C)C(=O)N[C@@H](Cc1ccc(O)cc1)C(=O)N[C@@H](CC(N)=O)C(=O)N[C@@H](Cc1ccccc1)C(=O)N[C@H](C(=O)N[C@@H](CCCNC(=N)N)C(=O)N[C@@H](CCCNC(=N)N)C(N)=O)C(C)C)[C@@H](C)O)C(C)C` [SEQ ID NO: 148] (Ac-VHFTFPQDLYNFVRR-NH2): the IC50 is < 500 nM.
